# Experimental data: patent US12377100B2 (GILEAD SCIENCES, INC., priority 2015, dated 2025)
# What was measured:
# TNFα = experiment: PBMC cytokine profiling assay, TNFα induction; format: cell-based; details: human PBMCs, 24 hours incubation
# Procedure, shortened: (§1)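 Cryopreserved healthy-donor human PBMCs (100k cells/well) were exposed for 24 h at 37 °C to a 10-point half-log compound series in 0.5% final DMSO. Secreted cytokines in the conditioned medium were quantified by MSD electrochemiluminescence, with TNFα samples diluted 1:9. AC50 was fitted by non-linear regression on percent activation normalised to plate controls.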
# MRC-5 cells = experiment: Cytotoxicity assay, MRC-5 cells, Cell Titer Glo, 5 days; format: cell-based, human; details: MRC-5, five days incubation, intracellular ATP; read-out: CC50 MRC5 CTG 5D
# Source text: (§2) To assess potential off-target toxicity of certain compounds disclosed herein, the in vitro cytotoxicity of those compounds was profiled using a panel of 5 cell lines with various tissue origins. Compound cytotoxicity was examined in hepatoma-derived Huh-7 and HepG2 cells, prostate carcinoma-derived PC-3 cells, lymphoma derived MT-4 cells and a normal diploid lung cell line MRC-5. HepG2 and PC-3 cells used were adapted to grow in glucose-free galactose-containing medium. These cells have a relatively higher sensitivity to inhibitors of mitochondrial oxidative phosphorylation compared to the same cells maintained in standard glucose-containing culture medium (Marroquin et al., Toxicol. Sci. 2007; 97 (2):539-47). Cell viability was determined by measuring intracellular ATP levels following five days of continuous incubation with test compounds.
# (§3) The human hepatoma Huh-7 cell line was obtained from ReBLikon GmbH (Mainz, Germany) {20879}. The MT-4 cell line (HTLV-1 transformed, human T lymphoblastoid cells) was obtained from the NIH AIDS Reagent program (Bathesda, MD). The human hepatoblastoma cell line HepG2, human prostate carcinoma cell line PC-3, and normal fetal lung derived MRC-5 cells were obtained from the American Type Culture Collection (ATCC, Manassas, VA).
# (§4) Huh-7 cells were maintained in Dulbecco's Modified Eagle Medium (DMEM) supplemented with 10% fetal bovine serum (FBS, Hyclone, Logan, UT), 1% non-essential amino acids (Gibco, Carlsbad, CA). PC-3 and HepG2 cells were adapted to grow in 0.2% galactose-containing, glucose-free Dulbecco's Modified Eagle Medium (DMEM) supplemented with 10% fetal bovine serum (FBS, Hyclone, Logan, UT), 1% non-essential amino acids (Gibco, Carlsbad, CA), 1% Pyruvate (Cellgro), 1% Glutamax (Invitrogen, Carlsbad, CA). Galactose-adapted cells were maintained in the same culture medium. MRC-5 cells were maintained in Eagle's Minimum Essential Medium (EMEM) supplemented with 10% fetal bovine serum (FBS, Hyclone, Logan, UT). MT-4 cells were maintained in RPMI-1640 supplemented with 10% fetal bovine serum (FBS, Hyclone, Logan, UT). All cell culture media were also supplemented with 100 Units/mL penicillin, 100 μg/mL streptomycin (Gibco).
# (§5) Using a Biotek uFlow Workstation (Biotek, Winooski, VT), 1500 HepG2, 1500 PC-3, 500 Huh7 or 1500 MRC-5 cells in 90 μL of culture media were dispensed into each well of black polystyrene tissue culture-treated 384-well plates. Plated cells were incubated for 24 hours in an incubator at 37° C., 5% CO2 and 90% humidity. Compound serial dilutions were performed in 100% DMSO in 384-well polypropylene (high recovery) plates on a Biomek FX Workstation (Beckman Coulter, Fullerton, CA). After 3-fold serial dilutions, 0.4 μL of compounds were transferred into 384-well plates containing cells using a Velocity 11 system equipped with a Bravo 384-well pipettor. The DMSO concentration in the final assay plates was 0.44% (v/v). Cells were incubated with compound(s) for five days at 37° C. Puromycin (44 μM final concentration) and DMSO (0.44%, v/v) were used as a positive and negative controls, respectively
# (§6) At the end of the incubation period the cytotoxicity assay was performed as follows: Media from 384-well cell culture plates were aspirated with a Biotek EL405 plate-washer (Biotek) and cells were washed with 100 μL PBS once. Twenty microliters of Cell Titer Glo (Promega, Madison, WI) was added to each well of the plates with a Biotek uFlow liquid dispenser. Plates were incubated for 15 minutes at room temperature before luminescence was measured with a Perkin Elmer Envision Plate Reader (Perkin Elmer, Waltham, MA).
# (§7) CC50 values were defined as the compound concentration that caused a 50% decrease in luminescence signal, and were calculated by non-linear regression using Pipeline Pilot software by applying a four parameter fit equation (Accelrys, San Diego, CA). Individual CC50 values are listed as μM concentrations.
# IFNα = experiment: PBMC cytokine profiling assay, IFNα induction; format: cell-based; details: human PBMCs, 24 hours incubation
# Procedure, shortened: as §1
# IL12p40 = experiment: PBMC cytokine profiling assay, IL12-p40 induction; format: cell-based; details: human PBMCs, 24 hours incubation
# Procedure, shortened: as §1
# Huh-7 cells = experiment: Cytotoxicity assay, Huh-7 cells, Cell Titer Glo, 5 days; format: cell-based, human; details: Huh-7, five days incubation, intracellular ATP; read-out: CC50 HUH7 CTG 5D
# Source text: as §2, §3, §4, §5, §6, §7
structure (smiles),measurement,setting,value
"CCCC[C@@](C)(Nc1nc(N)nc2cc(F)cnc12)C(C)O (single isomer, unassigned) [Example 95]",AC50,TNFα,0.15 µM
same,CC50,MRC-5 cells,44.4 µM
same,AC50,IFNα,> 50 µM
same,AC50,IL12p40,0.15 µM
"CCCC[C@@H](Nc1nc(N)nc2cc(F)cnc12)[C@H](C)O [Example 87, (2S,3R)-3-((2-amino-7-fluoropyrido[3,2-d]pyrimidin-4-yl)amino)heptan-2-ol]",AC50,"TNFα; Homo sapiens, PBMC, 24 h",5 µM
same,AC50,"IFNα; Homo sapiens, PBMC, 24 h",> 50 µM
same,AC50,"IL12p40; Homo sapiens, PBMC, 24 h",4.5 µM
"CCCC[C@@H](Nc1nc(N)nc2cccnc12)[C@@H](O)C(F)(F)F [Example 89, (2R,3R)-3-((2-aminopyrido[3,2-d]pyrimidin-4-yl)amino)-1,1,1-trifluoroheptan-2-ol]",AC50,"TNFα; Homo sapiens, PBMC, 24 h",2.2 µM
same,AC50,"IFNα; Homo sapiens, PBMC, 24 h",> 50 µM
same,AC50,"IL12p40; Homo sapiens, PBMC, 24 h",1.7 µM
"CCCC[C@@H](Nc1nc(N)nc2cccnc12)C(CF)NC(C)=O (stereo partly drawn) [Example 91, N-((3R)-3-((2-aminopyrido[3,2-d]pyrimidin-4-yl)amino)-1-fluoroheptan-2-yl)acetamide]",AC50,"TNFα; Homo sapiens, PBMC, 24 h",2 µM
same,AC50,"IFNα; Homo sapiens, PBMC, 24 h",> 50 µM
same,AC50,"IL12p40; Homo sapiens, PBMC, 24 h",1.9 µM
"CCCC[C@](C)(CO)Nc1nc(N)nc2cc(F)cnc12 [Example 98, (R)-2-((2-amino-7-fluoropyrido[3,2-d]pyrimidin-4-yl)amino)-2-methylhexan-1-ol]",AC50,"TNFα; Homo sapiens, PBMC, 24 h",0.24 µM
same,AC50,"IFNα; Homo sapiens, PBMC, 24 h",134 µM
same,AC50,"IL12p40; Homo sapiens, PBMC, 24 h",0.23 µM
"Nc1nc(N[C@@H](CO)CCCC(F)(F)F)c2ncccc2n1 [Example 99, (R)-2-((2-aminopyrido[3,2-d]pyrimidin-4-yl)amino)-6,6,6-trifluorohexan-1-ol]",AC50,"TNFα; Homo sapiens, PBMC, 24 h",3.4 µM
same,AC50,"IFNα; Homo sapiens, PBMC, 24 h",> 50 µM
same,AC50,"IL12p40; Homo sapiens, PBMC, 24 h",3.6 µM
"CCCC[C@H](CCO)Nc1nc(N)nc2cccnc12 [Example 100, (R)-3-((2-aminopyrido[3,2-d]pyrimidin-4-yl)amino)heptan-1-ol]",AC50,"TNFα; Homo sapiens, PBMC, 24 h",3.8 µM
same,AC50,"IFNα; Homo sapiens, PBMC, 24 h",4.6 µM
same,AC50,"IL12p40; Homo sapiens, PBMC, 24 h",3.5 µM
"CCCC[C@@H](Nc1nc(N)nc2cc(F)cnc12)C(O)CF (stereo partly drawn) [Example 102, (3R)-3-((2-amino-7-fluoropyrido[3,2-d]pyrimidin-4-yl)amino)-1-fluoroheptan-2-ol]",AC50,"TNFα; Homo sapiens, PBMC, 24 h",0.81 µM
same,CC50,MRC-5 cells,44.4 µM
same,AC50,"IFNα; Homo sapiens, PBMC, 24 h",> 50 µM
same,CC50,Huh-7 cells,44.4 µM
same,AC50,"IL12p40; Homo sapiens, PBMC, 24 h",0.76 µM
"CCCCC(Nc1nc(N)nc2cccnc12)C(C)O (stereo not drawn) [Example 103, 3-((2-aminopyrido[3,2-d]pyrimidin-4-yl)amino)heptan-2-ol]",AC50,"TNFα; Homo sapiens, PBMC, 24 h",3.3 µM
same,AC50,IFNα,10.3 µM
same,AC50,"IL12p40; Homo sapiens, PBMC, 24 h",2.6 µM
"CCCCC(Nc1nc(N)nc2cccnc12)C(C)O (stereo not drawn) [Example 104, 3-((2-aminopyrido[3,2-d]pyrimidin-4-yl)amino)heptan-2-ol]",AC50,TNFα,2.1 µM
same,AC50,IFNα,4.2 µM
same,AC50,IL12p40,1.9 µM
"CCCC[C@H](CO)Nc1nc(N)nc2cc(OC)cnc12 [Example 105, (R)-2-((2-amino-7-methoxypyrido[3,2-d]pyrimidin-4-yl)amino)hexan-1-ol]",AC50,"TNFα; Homo sapiens, PBMC, 24 h",3.5 µM
same,AC50,"IFNα; Homo sapiens, PBMC, 24 h",> 50 µM
same,AC50,"IL12p40; Homo sapiens, PBMC, 24 h",3.4 µM
"CCCC[C@H](CO)Nc1nc(N)nc2cc(OCC)cnc12 [Example 106, (R)-2-((2-amino-7-ethoxypyrido[3,2-d]pyrimidin-4-yl)amino)hexan-1-ol]",AC50,"TNFα; Homo sapiens, PBMC, 24 h",13.8 µM
same,AC50,"IFNα; Homo sapiens, PBMC, 24 h",> 50 µM
same,AC50,"IL12p40; Homo sapiens, PBMC, 24 h",10.2 µM
"CCCC[C@H](CO)Nc1nc(N)nc2cc(C)cnc12 [Example 107, (R)-2-((2-amino-7-methylpyrido[3,2-d]pyrimidin-4-yl)amino)hexan-1-ol]",AC50,"TNFα; Homo sapiens, PBMC, 24 h",2.8 µM
same,AC50,"IFNα; Homo sapiens, PBMC, 24 h",> 50 µM
same,AC50,"IL12p40; Homo sapiens, PBMC, 24 h",1.8 µM
"C=CC[C@H](CO)Nc1nc(N)nc2cccnc12 [Example 108, (R)-2-((2-aminopyrido[3,2-d]pyrimidin-4-yl)amino)pent-4-en-1-ol]",AC50,"TNFα; Homo sapiens, PBMC, 24 h",38.7 µM
same,AC50,"IFNα; Homo sapiens, PBMC, 24 h",> 50 µM
same,AC50,"IL12p40; Homo sapiens, PBMC, 24 h",22 µM
CC(C)(O)CC[C@H](CO)Nc1nc(N)nc2cccnc12 [Example 110],AC50,"TNFα; Homo sapiens, PBMC, 24 h",32.6 µM
same,AC50,"IFNα; Homo sapiens, PBMC, 24 h",32.6 µM
same,AC50,"IL12p40; Homo sapiens, PBMC, 24 h",32.6 µM
"CCCCC[C@](C)(CO)Nc1nc(N)nc2cc(F)cnc12 [Example 111, (R)-2-((2-amino-7-fluoropyrido[3,2-d]pyrimidin-4-yl)amino)-2-methylheptan-1-ol]",AC50,"TNFα; Homo sapiens, PBMC, 24 h",0.61 µM
same,AC50,IFNα,19.8 µM
same,AC50,"IL12p40; Homo sapiens, PBMC, 24 h",0.47 µM
"CCCCC[C@](C)(CO)Nc1nc(N)nc2cc(F)cnc12 [Example 112, (R)-2-((2-amino-7-fluoropyrido[3,2-d]pyrimidin-4-yl)amino)-2-methylheptan-1-ol]",AC50,TNFα,0.36 µM
same,AC50,IFNα,> 50 µM
same,AC50,IL12p40,0.33 µM
"COc1cnc2c(NC(C)(C)C)nc(N)nc2c1 [Example 113, N^4-(tert-butyl)-7-methoxypyrido[3,2-d]pyrimidine-2,4-diamine]",AC50,"TNFα; Homo sapiens, PBMC, 24 h",12.5 µM
same,AC50,"IFNα; Homo sapiens, PBMC, 24 h",> 50 µM
same,AC50,"IL12p40; Homo sapiens, PBMC, 24 h",13.6 µM
"CCCC[C@](C)(CO)Nc1nc(N)nc2cc(N)cnc12 [Example 115, (R)-2-((2,7-diaminopyrido[3,2-d]pyrimidin-4-yl)amino)-2-methylhexan-1-ol]",AC50,"TNFα; Homo sapiens, PBMC, 24 h",0.024 µM
same,AC50,"IFNα; Homo sapiens, PBMC, 24 h",9 µM
same,AC50,"IL12p40; Homo sapiens, PBMC, 24 h",0.027 µM
"CCCCC[C@](C)(CNC(C)=O)Nc1nc(N)nc2cccnc12 [Example 116, (R)—N-(2-((2-aminopyrido[3,2-d]pyrimidin-4-yl)amino)-2-methylheptyl)acetamide]",AC50,"TNFα; Homo sapiens, PBMC, 24 h",0.036 µM
same,AC50,"IFNα; Homo sapiens, PBMC, 24 h",> 50 µM
same,AC50,"IL12p40; Homo sapiens, PBMC, 24 h",0.11 µM
"CCCCC[C@](C)(CNC(C)=O)Nc1nc(N)nc2cc(Cl)cnc12 [Example 117, (R)—N-(2-((2-amino-7-chloropyrido[3,2-d]pyrimidin-4-yl)amino)-2-methylheptyl)acetamide]",AC50,"TNFα; Homo sapiens, PBMC, 24 h",0.37 µM
same,AC50,"IFNα; Homo sapiens, PBMC, 24 h",> 50 µM
same,AC50,"IL12p40; Homo sapiens, PBMC, 24 h",0.33 µM
"CCCC[C@](C)(CN[C@@H](C)C(F)(F)F)Nc1nc(N)nc2cccnc12 [Example 118, N^4—((R)-2-methyl-1-(((S)-1,1,1-trifluoropropan-2-yl)amino)hexan-2-yl)pyrido[3,2-d]pyrimidine-2,4-diamine]",AC50,"TNFα; Homo sapiens, PBMC, 24 h",9.3 µM
same,AC50,"IFNα; Homo sapiens, PBMC, 24 h",> 50 µM
same,AC50,"IL12p40; Homo sapiens, PBMC, 24 h",9.1 µM
